Measurements from patent publication US20240043404A1 (AbbVie Inc., priority 2009, published 2024).
Read-outs that look alike come from different tables or passages of the source.

Tested on: RS4;11 cells
Assay: RS4;11 cell viability assay (CellTiter Glo);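 also: acute lymphoblastic leukemia line RS4,11, EC50 derived from percentage of viable cells after treatment relative to untreated controls, cell killing taken as a measure of Bcl-2 inhibition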
Assay type: cell-based, human
Conditions: read-out: RS4
[1] = Homo sapiens, RS4-11, 48 h, 50,000 cells per well, 10% human serum, 48 hours, 11 EC50 Values
[2] = Homo sapiens, RS4-11, Table 5, direct comparison Z=N with corresponding analogs Z=C, 11 EC50
[3] = Homo sapiens, RS4-11, Table 4, selected compounds in U.S. Pat. Application No. 12/631404, 11 EC50

Experimental: The acute lymphoblastic leukemia (ALL) cell line RS4;11 was used as the primary human cell line to assess the cellular activity of Bcl-2 selective agents in vitro and their efficacy in vivo.
Cell cytotoxicity EC50 values were assessed using CellTiter Glo (Promega) according to the manufacturer's recommendations. The EC50 values were determined as a percentage of viable cells following treatment compared to the untreated control cells.

Row | Compound | EC50 [1] | EC50 [2] | EC50 [3] | EC50 (Table 5, direct comparison Z=N with corresponding analogs Z=C, 11 EC50)
1 | 4-{4-[(4′-chloro-1,1′-biphenyl-2-yl)methyl]piperazin-1-yl}-2-(1H-indol-5-yloxy)-N-({3-nitro-4-[(tetrahydro-2H-pyran-4-ylmethyl)amino]phenyl}sulfonyl) benzamide [Example 87] |  |  |  | 1180 nM
2 | O=C(NS(=O)(=O)c1ccc(NCC2CCOCC2)c([N+](=O)[O-])c1)c1ccc(N2CCN(Cc3ccccc3-c3ccc(Cl)cc3)CC2)cc1Oc1cnc2[nH]ccc2c1 [Example 1, 4-{4-[(4′-chloro-1,1′-biphenyl-2-yl)methyl]piperazin-1-yl}-N-({3-nitro-4-[(tetrahydro-2H-pyran-4-ylmethyl)amino]phenyl}sulfonyl)-2-(1H-pyrrolo[2,3-b]pyridin-5-yloxy)benzamide] | 712 nM | 712 nM |  | 
3 | O=C(NS(=O)(=O)c1ccc(NCCCN2CCOCC2)c([N+](=O)[O-])c1)c1ccc(N2CCN(Cc3ccccc3-c3ccc(Cl)cc3)CC2)cc1Oc1cnc2[nH]ccc2c1 [Example 2, 4-{4-[(4′-chloro-1,1′-biphenyl-2-yl)methyl]piperazin-1-yl}-N-({4-[(3-morpholin-4-ylpropyl)amino]-3-nitrophenyl}sulfonyl)-2-(1H-pyrrolo[2,3-b]pyridin-5-yloxy)benzamide] | 783 nM | 783 nM |  | 
4 | CN1CCC(Nc2ccc(S(=O)(=O)NC(=O)c3ccc(N4CCN(CC5=C(c6ccc(Cl)cc6)CC(C)(C)CC5)CC4)cc3Oc3cccc4[nH]c5ccccc5c34)cc2[N+](=O)[O-])CC1 [Example 7, 2-(9H-carbazol-4-yloxy)-4-(4-{[2-(4-chlorophenyl)-4,4-dimethylcyclohex-1-en-1-yl]methyl}piperazin-1-yl)-N-({4-[(1-methylpiperidin-4-yl)amino]-3-nitrophenyl}sulfonyl)benzamide] | 192 nM |  |  | 
5 | CC1(C)CCC(CN2CCN(c3ccc(C(=O)NS(=O)(=O)c4ccc(NCCCN5CCCC5)c([N+](=O)[O-])c4)c(Oc4cccc5[nH]c6ccccc6c45)c3)CC2)=C(c2ccc(Cl)cc2)C1 [Example 8, 2-(9H-carbazol-4-yloxy)-4-(4-{[2-(4-chlorophenyl)-4,4-dimethylcyclohex-1-en-1-yl]methyl}piperazin-1-yl)-N-({3-nitro-4-[(3-pyrrolidin-1-ylpropyl)amino]phenyl}sulfonyl)benzamide] | 158 nM |  |  | 
6 | CC1(C)CCC(CN2CCN(c3ccc(C(=O)NS(=O)(=O)c4ccc5ccccc5c4)c(Oc4cnc5[nH]ccc5c4)c3)CC2)=C(c2ccc(Cl)cc2)C1 [Example 14, 4-(4-{[2-(4-chlorophenyl)-4,4-dimethylcyclohex-1-en-1-yl]methyl}piperazin-1-yl)-N-(2-naphthylsulfonyl)-2-(1H-pyrrolo[2,3-b]pyridin-5-yloxy)benzamide] | 3890 nM |  |  | 
7 | COCCNc1ccc(S(=O)(=O)NC(=O)c2ccc(N3CCN(CC4=C(c5ccc(Cl)cc5)CC(C)(C)CC4)CC3)cc2Oc2cnc3[nH]ccc3c2)cc1S(=O)(=O)C(F)(F)F [Example 16, 4-(4-{[2-(4-chlorophenyl)-4,4-dimethylcyclohex-1-en-1-yl]methyl}piperazin-1-yl)-N-({4-[(2-methoxyethyl)amino]-3-[(trifluoromethyl)sulfonyl]phenyl}sulfonyl)-2-(1H-pyrrolo[2,3-b]pyridin-5-yloxy)benzamide] | 1210 nM | 1210 nM |  | 
8 | COCCNc1ccc(S(=O)(=O)NC(=O)c2ccc(N3CCN(CC4=C(c5ccc(Cl)cc5)CC(C)(C)CC4)CC3)cc2Oc2ccc3[nH]ccc3c2)cc1[N+](=O)[O-] [Example 20, 4-(4-{[2-(4-chlorophenyl)-4,4-dimethylcyclohex-1-en-1-yl]methyl}piperazin-1-yl)-2-(1H-indol-5-yloxy)-N-({4-[(2-methoxyethyl)amino]-3-nitrophenyl}sulfonyl)benzamide] | 191 nM | 191 nM | 191 nM | 
9 | CC1(C)CCC(CN2CCN(c3ccc(C(=O)NS(=O)(=O)c4ccc(NC[C@@H]5CCCOC5)c([N+](=O)[O-])c4)c(Oc4ccc5[nH]ccc5c4)c3)CC2)=C(c2ccc(Cl)cc2)C1 [Example 21, 4-(4-{[2-(4-chlorophenyl)-4,4-dimethylcyclohex-1-en-1-yl]methyl}piperazin-1-yl)-2-(1H-indol-5-yloxy)-N-[(3-nitro-4-{[(3S)-tetrahydro-2H-pyran-3-ylmethyl]amino}phenyl)sulfonyl]benzamide] | 62 nM | 62 nM |  | 
10 | CC1(C)CCC(CN2CCN(c3ccc(C(=O)NS(=O)(=O)c4ccc(NC[C@H]5CCCOC5)c([N+](=O)[O-])c4)c(Oc4ccc5[nH]ccc5c4)c3)CC2)=C(c2ccc(Cl)cc2)C1 [Example 22, 4-(4-{[2-(4-chlorophenyl)-4,4-dimethylcyclohex-1-en-1-yl]methyl}piperazin-1-yl)-2-(1H-indol-5-yloxy)-N-[(3-nitro-4-{[(3R)-tetrahydro-2H-pyran-3-ylmethyl]amino}phenyl)sulfonyl]benzamide] | 85 nM | 85 nM |  | 

Continued, in another order:

Row | EC50 [1] | EC50 [2] | EC50 [3] | Compound | EC50 (Table 5, direct comparison Z=N with corresponding analogs Z=C, 11 EC50)
11 | 11.8 nM |  |  | CC1(C)CCC(CN2CCN(c3ccc(C(=O)NS(=O)(=O)c4ccc(NC5CCN([C@H]6CCOC[C@H]6F)CC5)c([N+](=O)[O-])c4)c(Oc4cnc5[nH]ccc5c4)c3)CC2)=C(c2ccc(Cl)cc2)C1 (relative stereo) [Example 115, 4-(4-{[2-(4-chlorophenyl)-4,4-dimethylcyclohex-1-en-1-yl]methyl}piperazin-1-yl)-N-{[4-({1-[cis-3-fluorotetrahydro-2H-pyran-4-yl]piperidin-4-yl}amino)-3-nitrophenyl]sulfonyl}-2-(1H-pyrrolo[2,3-b]pyridin-5-yloxy)benzamide] | 
12 | 12.7 nM |  |  | CC1(C)CCC(CN2CCN(c3ccc(C(=O)NS(=O)(=O)c4ccc(OC[C@@H]5CN(C6COC6)C[C@H]5CF)c([N+](=O)[O-])c4)c(Oc4cnc5[nH]ccc5c4)c3)CC2)=C(c2ccc(Cl)cc2)C1 (relative stereo) [Example 137, 4-(4-{[2-(4-chlorophenyl)-4,4-dimethylcyclohex-1-en-1-yl]methyl}piperazin-1-yl)-N-[(4-{[trans-4-(fluoromethyl)-1-oxetan-3-ylpyrrolidin-3-yl]methoxy}-3-nitrophenyl)sulfonyl]-2-(1H-pyrrolo[2,3-b]pyridin-5-yloxy)benzamide] | 
13 | 14.2 nM | 14.2 nM |  | CC1(C)CCC(CN2CCN(c3ccc(C(=O)NS(=O)(=O)c4ccc(NC5CCN(C6CCOCC6)CC5)c([N+](=O)[O-])c4)c(Oc4cnc5[nH]ccc5c4)c3)CC2)=C(c2ccc(Cl)cc2)C1 [Example 3, 4-(4-{[2-(4-chlorophenyl)-4,4-dimethylcyclohex-1-en-1-yl]methyl}piperazin-1-yl)-N-({3-nitro-4-[(1-tetrahydro-2H-pyran-4-ylpiperidin-4-yl)amino]phenyl}sulfonyl)-2-(1H-pyrrolo[2,3-b]pyridin-5-yloxy)benzamide] | 
14 | 12.4 nM | 12 nM |  | CC1(C)CCC(CN2CCN(c3ccc(C(=O)NS(=O)(=O)c4ccc(NCC5CCOCC5)c([N+](=O)[O-])c4)c(Oc4cnc5[nH]ccc5c4)c3)CC2)=C(c2ccc(Cl)cc2)C1 [Example 5, 4-(4-{[2-(4-chlorophenyl)-4,4-dimethylcyclohex-1-en-1-yl]methyl}piperazin-1-yl)-N-({3-nitro-4-[(tetrahydro-2H-pyran-4-ylmethyl)amino]phenyl}sulfonyl)-2-(1H-pyrrolo[2,3-b]pyridin-5-yloxy)benzamide] | 
15 | 34.9 nM | 35 nM |  | CN1CCN(Nc2ccc(S(=O)(=O)NC(=O)c3ccc(N4CCN(CC5=C(c6ccc(Cl)cc6)CC(C)(C)CC5)CC4)cc3Oc3cnc4[nH]ccc4c3)cc2[N+](=O)[O-])CC1 [Example 6, 4-(4-{[2-(4-chlorophenyl)-4,4-dimethylcyclohex-1-en-1-yl]methyl}piperazin-1-yl)-N-({4-[(4-methylpiperazin-1-yl)amino]-3-nitrophenyl}sulfonyl)-2-(1H-pyrrolo[2,3-b]pyridin-5-yloxy)benzamide] | 
16 | 13.9 nM | 14 nM |  | CC1(C)CCC(CN2CCN(c3ccc(C(=O)NS(=O)(=O)c4ccc(NC[C@@H]5CCCOC5)c([N+](=O)[O-])c4)c(Oc4cnc5[nH]ccc5c4)c3)CC2)=C(c2ccc(Cl)cc2)C1 [Example 11, 4-(4-{[2-(4-chlorophenyl)-4,4-dimethylcyclohex-1-en-1-yl]methyl}piperazin-1-yl)-N-[(3-nitro-4-{[(3S)-tetrahydro-2H-pyran-3-ylmethyl]amino}phenyl)sulfonyl]-2-(1H-pyrrolo[2,3-b]pyridin-5-yloxy)benzamide] | 
17 | 475 nM | 475 nM |  | CC1(C)CCC(CN2CCN(c3ccc(C(=O)NS(=O)(=O)c4ccc(NCC5CCOCC5)c(S(=O)(=O)C(F)(F)F)c4)c(Oc4cnc5[nH]ccc5c4)c3)CC2)=C(c2ccc(Cl)cc2)C1 [Example 17, 4-(4-{[2-(4-chlorophenyl)-4,4-dimethylcyclohex-1-en-1-yl]methyl}piperazin-1-yl)-2-(1H-pyrrolo[2,3-b]pyridin-5-yloxy)-N-({4-[(tetrahydro-2H-pyran-4-ylmethyl)amino]-3-[(trifluoromethyl)sulfonyl]phenyl}sulfonyl)benzamide] | 
18 | 86 nM | 86 nM |  | CC1(C)CCC(CN2CCN(c3ccc(C(=O)NS(=O)(=O)c4ccc(NCC5CCOCC5)c([N+](=O)[O-])c4)c(Oc4ccc5[nH]ccc5c4)c3)CC2)=C(c2ccc(Cl)cc2)C1 [Example 18, 4-(4-{[2-(4-chlorophenyl)-4,4-dimethylcyclohex-1-en-1-yl]methyl}piperazin-1-yl)-2-(1H-indol-5-yloxy)-N-({3-nitro-4-[(tetrahydro-2H-pyran-4-ylmethyl)amino]phenyl}sulfonyl)benzamide] | 
19 | 465 nM | 465 nM | 465 nM | CC1(C)CCC(CN2CCN(c3ccc(C(=O)NS(=O)(=O)c4ccc(N[C@H]5CC[C@H](N6CCOCC6)CC5)c([N+](=O)[O-])c4)c(Oc4ccc5[nH]ccc5c4)c3)CC2)=C(c2ccc(Cl)cc2)C1 [Example 19, Trans-4-(4-{[2-(4-chlorophenyl)-4,4-dimethylcyclohex-1-en-1-yl]methyl}piperazin-1-yl)-2-(1H-indol-5-yloxy)-N-({4-[(4-morpholin-4-ylcyclohexyl)amino]-3-nitrophenyl}sulfonyl)benzamide] | 
